{"source": "patent US20220409580A1", "about": "“METHODS OF TREATING CONDITIONS RELATED TO THE S1P1 RECEPTOR” (Arena Pharmaceuticals, Inc., priority 2019, published 2022)", "format_in_all_cases": "in vivo, human", "key": {"[1]": {"test_system": "circulating B cells, CD4+ TCM, CD4+ TN, Th17, Th2, CD8+ TCM, and CD8+TN cells", "assay": "In depth immunophenotyping in healthy subjects (FIG. 3)", "conditions": "1 or 2 mg once daily, peaked at Day 7 pre-dose", "experimental": "(§1) A single-blind (ie, subject only), placebo-controlled, randomized, fixed-sequence, parallel design study evaluated PK, PD, safety, and tolerability in healthy Japanese and Caucasian male subjects (data reported herein is based on the preliminary clinical study report). A total of 49 subjects were enrolled and received 1 or 2 mg of Compound 1 or placebo once daily for 7 days followed by an additional single dose on Day 15, administered 1 week after a treatment-free period. […] The median percent change from baseline at Day 7 was −23.61% in the Japanese 1 mg group, −25.79% in the Caucasian 1 mg group, −50.00% in the Japanese 2 mg group, and −43.67% in the Caucasian 2 mg group. The median percent change from baseline at Day 15 (pre-dose) was 0.00% in the Japanese 1 mg group, −21.43% in the Caucasian 1 mg group, −6.67% in the Japanese 2 mg group, and −16.23% in the Caucasian 2 mg group. In depth immunophenotyping was performed in healthy subjects."}, "[2]": {"assay": "Safety and tolerability in adult subjects, including Phase 1 studies with healthy adult subjects", "conditions": "approximately 281 adult subjects at various doses; single doses up to 5 mg, repeated doses up to 4 mg QD", "experimental": "(§2) Compound 1, or a pharmaceutically acceptable salt, solvate, or hydrate thereof, is an orally administered, selective, synthetic sphingosine 1-phosphate (S1P) receptor 1, 4, 5 modulator. […] Its safety and tolerability have been evaluated in Phase 1 studies with healthy adult subjects at single doses up to 5 mg and repeated doses up to 4 mg once daily (QD)."}, "[3]": {"test_system": "lymphocyte count", "assay": "Single-blind, placebo-controlled, randomized study of PK, PD, safety and tolerability: lymphocyte count", "experimental": "as §1"}, "[4]": {"test_system": "UC", "assay": "Phase 2 dose-ranging study in UC patients and open-label extension study", "conditions": "UC patients", "experimental": "as §2"}}}
{"smiles": "O=C(O)C[C@H]1CCc2c1[nH]c1ccc(OCc3ccc(C4CCCC4)c(C(F)(F)F)c3)cc21", "note": "[Compound 1, (R)-2-(7-(4-cyclopentyl-3-(trifluoromethyl)benzyloxy)-1,2,3,4-tetrahydrocyclopenta[b]indol-3-yl)acetic acid]", "values": [{"measurement": "median number of circulating B cells, CD4+ TCM, CD4+ TN, Th17, Th2, CD8+ TCM, and CD8+TN cells", "setting": "[1]", "value": "dose-dependent decrease"}, {"measurement": "safety and tolerability", "setting": "[2]", "value": "safe and well-tolerated"}, {"measurement": "median percent change from baseline in lymphocyte count", "setting": "[3]; Day 7, Caucasian 1 mg group, once daily for 7 days, healthy male subjects", "value": "−25.79", "unit": "%"}, {"measurement": "median percent change from baseline in lymphocyte count", "setting": "[3]; Day 7, Caucasian 2 mg group, once daily for 7 days, healthy male subjects", "value": "−43.67", "unit": "%"}, {"measurement": "median percent change from baseline in lymphocyte count", "setting": "[3]; Day 7, Japanese 1 mg group, once daily for 7 days, healthy male subjects", "value": "−23.61", "unit": "%"}, {"measurement": "median percent change from baseline in lymphocyte count", "setting": "[3]; Day 7, Japanese 2 mg group, once daily for 7 days, healthy male subjects", "value": "−50.00", "unit": "%"}, {"measurement": "median percent change from baseline in lymphocyte count", "setting": "[3]; Day 15 (pre-dose), after 1 week treatment-free period, Caucasian 1 mg group", "value": "−21.43", "unit": "%"}, {"measurement": "median percent change from baseline in lymphocyte count", "setting": "[3]; Day 15 (pre-dose), after 1 week treatment-free period, Caucasian 2 mg group", "value": "−16.23", "unit": "%"}, {"measurement": "median percent change from baseline in lymphocyte count", "setting": "[3]; Day 15 (pre-dose), after 1 week treatment-free period, Japanese 1 mg group", "value": 0.00, "unit": "%"}, {"measurement": "median percent change from baseline in lymphocyte count", "setting": "[3]; Day 15 (pre-dose), after 1 week treatment-free period, Japanese 2 mg group", "value": "−6.67", "unit": "%"}, {"measurement": "median lymphocyte count", "setting": "[3]; all treatment groups, from first dose (Day 2) through end of repeated dosing period on Day 8", "value": "Progressive decreases"}, {"measurement": "total lymphocyte count, including Th2 T cells", "setting": "[3]; healthy subjects, 1 or 2 mg once daily", "value": "dose-dependent decrease"}, {"measurement": "endoscopic and symptomatic improvements versus placebo", "setting": "[4]; 2 mg QD for 12 weeks", "value": "clinically meaningful and statistically significant endoscopic and symptomatic improvements"}, {"measurement": "beneficial effects in open-label extension study", "setting": "[4]; up to 46 weeks", "value": "Sustained beneficial effects"}]}
